Data taken from PubChem BioAssay AID977607 (Broad Institute, 2014).
Active and inactive are the calls of the source.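 Rule for the calls: active = curve reaches 40% activation over neutral controls at an AC40 no higher than the top valid tested concentration; inconclusive = no clear call, values can overlap the other calls; inactive = signal moving opposite to the expected increase, and the rest.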

Test system: INS-1E GLuc insulin secretion reporter, luminescence, 2-3 h
Test: activators of glucose-dependent insulin secretion, dose response, cell-based, INS-1E, Gaussia luciferase, luminescence, cherry-pick, set 2 (AID 977607)

Row | SMILES | AC40
1 | CCCCCCCOC(=O)c1nc(Cl)c(Cl)c(N)c1Cl | 14.5 µM
2 | N/C(=N\OC(=O)COc1ccc(Cl)cc1Cl)c1cccnc1 | 29.8 µM
3 | Oc1ccccc1-c1cc(C(F)(F)C(F)F)nc(-c2ccccc2)n1 | 7.7 µM
4 | O=C(NC1CCCCC1)C(c1ccc(F)cc1)N(Cc1ccccc1)C(=O)CN1C(=O)c2ccccc2S1(=O)=O (stereo unspecified) | 27.1 µM
5 | O=c1c2ccccc2nc(-c2ccco2)n1/N=C/c1ccccc1O | 14.7 µM
6 | C=CCOc1ccc(-c2nc3c(c(=O)[nH]c(=O)n3CCCC)n2C)cc1Br | 11.1 µM
7 | NC1=NC[C@H](CC2CCCCC2)N1CCc1cc(C(F)(F)F)cc(C(F)(F)F)c1 | 16.6 µM
8 | Cc1ccc(S(=O)(=O)N2C[C@@H]3N[C@H](C2)C3c2ccc(/C=C/c3ccccc3)cc2)cc1 (stereo partly specified) | 7.9 µM
9 | COCCn1c(=NC(=O)c2cc(Cl)sc2Cl)sc2cc(S(N)(=O)=O)ccc21 | 7.51 µM
10 | CCOC(=O)c1oc2cc(O)cc(C)c2c1C | 15.1 µM
11 | COc1ccc(-c2nnn(Cc3nc(N)nc(N4CCOCC4)n3)n2)cc1OC | 1.67 µM
12 | COc1ccc(OC)c(-c2nnc3n2N=C(c2ccc(OC)c(OC)c2)CS3)c1 | 0.564 µM
13 | CC(C)(C)c1cc(NCCCn2ccnc2)n2ncc(-c3ccc(Cl)cc3)c2n1 | 6.19 µM
14 | CCNC(=O)NC(=O)C(C)OC(=O)c1oc2ccccc2c1CSC1CCCCC1 (stereo unspecified) | 5.51 µM
15 | CCOC(=O)c1csc(-c2ccc(OC)c(OC)c2)n1 | 2.17 µM
16 | CCCNC(=O)c1nnsc1S(=O)c1ccc(Cl)cc1 (stereo unspecified) | 1.06 µM
17 | Cc1cc(C)cc(OCCCN2CCC(C(O)(c3ccccc3)c3ccccc3)CC2)c1 | 13 µM
18 | Cc1ccc(-n2sc3cc(F)ccc3c2=O)c(C)c1 | 1.94 µM
19 | COc1ccc(-c2nc(-c3cccnc3)no2)cc1OC | > 35 µM (inactive)
20 | Cc1ccc(OCC(=O)NC(=S)Nc2cccc(NC(=O)c3ccccc3)c2)cc1 | 11.3 µM
21 | O=C(Nc1ccc(C(F)(F)F)cc1)N1C[C@@H]2N[C@H](C1)C2c1ccc(-c2ccccc2)cc1 (stereo partly specified) | 10.2 µM

Row | SMILES | AC40
22 | COc1ccc(CCn2ccc(O)c(Cc3c(F)cccc3Cl)c2=O)cc1OC | 0.0544 µM
23 | Cc1ccc(/C=N/NC(=O)COc2ccccc2-c2ccccc2)cc1 | 7.03 µM
24 | CCOc1cc(/C=N/NC(=O)CCn2nc(C)cc2C)ccc1O | 8.04 µM
25 | CCCNC(=O)Cn1sc2nc(C)cc(C)c2c1=O | 6.91 µM
26 | NC(N)=N/N=C/c1ccc(OCc2ccccc2)c(OCc2ccccc2)c1 | 10.2 µM
27 | C/C(=N\NC(=O)c1ccc(Cl)c(Cl)c1)c1ccc(Br)s1 | 9.32 µM
28 | COc1ccc2nc3ccccc3nc2c1NC(=O)c1ccc(Cl)cc1Cl | 6.29 µM
29 | CCOC(=O)C1(C)CCCCN1C(=O)c1cccc(Cl)c1 (stereo unspecified) | > 35 µM (inactive)
30 | COc1cc2c(cc1OC)C1=C(C#N)CCC(=NC(=O)c3ccco3)N1CC2 | 7.7 µM
31 | Cc1ccc(Oc2ncc(-c3ccc(Cl)cc3)cn2)cc1 | 6.86 µM
32 | CC(=O)N(/N=C/c1cccc(C)c1)c1nc(-c2ccc(Br)cc2)cs1 | 5.72 µM
33 | Cc1ccccc1NC(=O)c1ccc(OCc2c(C)noc2C)cc1 | > 35 µM (inactive)
34 | C=C[C@@]1(C)CC(=O)[C@]2(O)[C@@]3(C)[C@@H](O)CCC(C)(C)[C@@H]3[C@H](O)[C@H](OC(C)=O)[C@@]2(C)O1 | 0.0336 µM
35 | COC(=O)C1=C(C)N(C)C(=NCc2cccc(C(F)(F)F)c2)NC1c1ccc(C(F)(F)F)cc1 (stereo unspecified) | 18.1 µM
36 | COC(=O)C1=C(C)N(Cc2cccc(C(F)(F)F)c2)C(=NCc2ccc(OC)cc2)NC1c1cccc(F)c1 (stereo unspecified) | 10.8 µM
37 | COc1cccc(CN2C[C@@H]3N[C@H](C2)C3c2ccc(-c3ccccc3OC)cc2)c1 (stereo partly specified) | 7.9 µM
38 | Cc1ccc2oc(-c3cccc(NC(=O)Cc4cccs4)c3)nc2c1 | 5.62 µM
39 | COc1ccccc1C(=O)NC(=S)Nc1ccc2[nH]c(=O)[nH]c2c1 | 25.1 µM
40 | CC1(C(=O)NCc2cccc3ccccc23)CCN1Cc1ccc(OC(F)(F)F)cc1 (stereo unspecified) | 14.3 µM
41 | Cc1ccc(C)c(C(=O)Nc2nc3ccccc3[nH]2)c1 | 8.78 µM
42 | CC(C)CC(NC(=O)c1ccc(Cl)cc1)C(=O)OCC(=O)c1ccc2c(c1)NC(=O)CO2 (stereo unspecified) | 2.36 µM

Row | SMILES | AC40
43 | Cc1cc(Nc2ccc(Cl)cc2)nc(NCc2ccccc2)n1 | 9.24 µM
44 | CC(C)CCn1c(N2CCCC2)nc2c1c(=O)[nH]c(=O)n2C | 31.7 µM
45 | COc1cc(OC)c2c3c(c(C4CCCCC4)nc2c1)CCC3 | 9.8 µM
46 | N#CCc1nn(-c2ccccc2)c2ncnc(N)c12 | 11.9 µM
47 | O=C(NCc1ccccn1)c1coc(=O)c(Br)c1 | 2.01 µM
48 | CC(C)Nc1nc(Nc2ccc(C(N)=O)cc2)c2sccc2n1 | 9.89 µM
49 | Cc1cc(Cl)ccc1Oc1nc(-c2ccccc2)ncc1S(C)(=O)=O | 4.28 µM
50 | OC(c1ccccc1)(c1ccccc1)C1CCN(CCCOc2ccc3c(c2)CCCC3)CC1 | 6.92 µM
51 | CCOC(=O)c1[nH]c2cc(OC)c(OC)cc2c1NC(=O)c1ccc2c(c1)OCO2 | 18.1 µM
52 | CN(C)CCOc1ccc(-c2c(-c3ccccc3)sc3ccccc23)cc1 | 2.75 µM
53 | O=C(Nc1nnc(-c2ccccc2SCc2ccccc2F)s1)Nc1ccccc1F | 16.7 µM
54 | O=C(NN=Cc1ccccc1Cl)c1cccc2ccccc12 | 11.6 µM
55 | O=C1N/C(=N\N=C\c2cccs2)SC1Cc1cccc(Cl)c1 (stereo unspecified) | 9.04 µM
56 | CCN(Cc1ccccc1)S(=O)(=O)c1ccc(C(=O)N(CCCN(C)C)c2nc3cc(C)cc(C)c3s2)cc1 | 17.4 µM
57 | Clc1ccc(-c2ccnc(Oc3cc(Cl)ccc3Cl)n2)cc1 | 7.53 µM
58 | COc1ccc(-c2ccc(SCc3ccccn3)nn2)cc1OC | 6.41 µM
59 | C=CCNC(=S)N/N=C/c1ccc(-c2cc(Cl)ccc2Cl)o1 | 5.15 µM
60 | COc1ccc(-c2ccc(SCc3cccnc3)nn2)cc1OC | 0.451 µM
61 | CCC(C)c1ccccc1OCCCN(C)Cc1ccccc1 (stereo unspecified) | 7.97 µM
62 | Cc1ccccc1-n1sc2cc(F)ccc2c1=O | 1.56 µM
63 | Fc1ccccc1/C=N/n1c(C2CCCCC2)n[nH]c1=S | 18.5 µM

Row | SMILES | AC40
64 | N#Cc1nccnc1S(=O)(=O)c1cccs1 | 0.467 µM
65 | CCOc1cccc(-c2csc(C3COc4ccccc4O3)n2)c1 (stereo unspecified) | 3.7 µM
66 | COC(=O)c1ccc2c(c1)NC(=O)C(N(CC(C)C)CC(C)C)S2 (stereo unspecified) | 5.29 µM
67 | O=S(=O)(Nc1ccc(-c2ccc3nncn3n2)cc1)c1ccccc1Cl | 15.2 µM
68 | c1ccc(Cn2nnc3c(N4CCc5ccccc54)ncnc32)cc1 | 5.06 µM
69 | Cc1ccc(NC(=O)c2ccc(COc3ccc4c(c3)CCC4)cc2)c(C)c1 | 1.27 µM
70 | O=C(CC1c2ccccc2Oc2ccccc21)Nc1ccccc1C(F)(F)F | 6.13 µM
71 | CCn1nc(C(=O)Nc2ccc3nc(C)sc3c2)c2ccccc2c1=O | 25.1 µM
72 | CCN1CCN(Cc2ccc(NC(=O)c3cccc(-c4ccc5nc(NC(=O)C6CC6)sc5n4)c3)cc2C(F)(F)F)CC1 | 11.4 µM
73 | COc1cc2c(cc1OC)-c1cc(Nc3ccc(N(C)C)cc3)nc(=O)n1CC2 | 5.31 µM
74 | COc1ccc(CCNS(=O)(=O)c2cccc(C)c2)cc1OC | 2.46 µM
75 | Cc1cccc(C(C)C)c1NC(=O)COC(=O)c1cccc(S(=O)(=O)N2CCc3ccccc3C2)c1 | 10.9 µM
76 | FC(F)(F)c1cc(CCN2CCNC[C@@H]2CC2CCCCC2)cc(C(F)(F)F)c1 | 5.27 µM
77 | CCCCc1c(-c2ccccc2OC)ncn1CCc1ccccc1 | 16.7 µM
78 | COc1cc(/C=N/NC(=O)C(C)n2nnc3ccccc32)ccc1O (stereo unspecified) | 6.55 µM
79 | CC1(Cc2ccc(C(F)(F)F)o2)C(=O)Nc2ccc(-c3cccc(C(F)(F)F)c3)cc21 (stereo unspecified) | 8.84 µM
80 | CCCCc1c(-c2ccccc2F)ncn1CCc1ccccc1OC | 7.64 µM
81 | CNc1nc(Cl)nc2c1ncn2-c1ccccc1 | 15.6 µM
